Results as given in ChEMBL document CHEMBL3991601, “The target landscape of clinical kinase drugs” (Science, 2017).
The source made the active and inactive calls. Rule as the data show it, for most assays here: actives have a measured Kd and inactives only a lower limit.

What was measured:
[1] = target: Cyclin-dependent kinase 1 (Homo sapiens, UniProt P06493)
[2] = target: T1, Ephrin type-B receptor 6 (Homo sapiens, UniProt O15197)
T1 sequence (O15197 whole entry): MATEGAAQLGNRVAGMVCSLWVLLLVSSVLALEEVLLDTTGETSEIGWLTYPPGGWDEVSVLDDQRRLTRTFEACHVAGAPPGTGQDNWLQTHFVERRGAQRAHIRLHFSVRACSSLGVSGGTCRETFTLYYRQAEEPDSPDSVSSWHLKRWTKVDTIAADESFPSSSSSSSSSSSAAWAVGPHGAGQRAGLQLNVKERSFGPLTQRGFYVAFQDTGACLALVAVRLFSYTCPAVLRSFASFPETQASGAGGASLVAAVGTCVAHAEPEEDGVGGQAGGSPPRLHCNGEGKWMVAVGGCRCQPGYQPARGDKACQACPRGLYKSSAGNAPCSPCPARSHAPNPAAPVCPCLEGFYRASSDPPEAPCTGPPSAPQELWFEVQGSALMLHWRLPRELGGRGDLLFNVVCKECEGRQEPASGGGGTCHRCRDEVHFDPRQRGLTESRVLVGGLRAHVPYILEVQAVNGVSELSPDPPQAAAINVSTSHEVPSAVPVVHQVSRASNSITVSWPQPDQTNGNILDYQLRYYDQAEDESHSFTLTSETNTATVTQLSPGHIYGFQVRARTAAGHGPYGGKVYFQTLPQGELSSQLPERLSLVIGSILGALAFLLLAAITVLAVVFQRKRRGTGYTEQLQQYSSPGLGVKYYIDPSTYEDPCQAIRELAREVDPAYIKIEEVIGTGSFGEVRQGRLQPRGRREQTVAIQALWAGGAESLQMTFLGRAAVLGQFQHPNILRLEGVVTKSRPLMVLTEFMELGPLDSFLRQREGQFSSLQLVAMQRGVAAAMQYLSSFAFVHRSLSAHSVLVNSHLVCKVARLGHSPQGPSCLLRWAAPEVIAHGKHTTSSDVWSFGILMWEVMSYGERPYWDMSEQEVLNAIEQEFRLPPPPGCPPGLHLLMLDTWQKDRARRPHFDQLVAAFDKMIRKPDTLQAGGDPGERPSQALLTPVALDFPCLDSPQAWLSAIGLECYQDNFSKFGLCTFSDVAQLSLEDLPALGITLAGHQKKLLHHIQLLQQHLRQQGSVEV

[3] = target: Tyrosine-protein kinase FRK (Homo sapiens, UniProt P42685)
[4] = target: T2, Dual specificity mitogen-activated protein kinase kinase 6 (Homo sapiens, UniProt P52564)
T2 sequence (P52564 whole entry): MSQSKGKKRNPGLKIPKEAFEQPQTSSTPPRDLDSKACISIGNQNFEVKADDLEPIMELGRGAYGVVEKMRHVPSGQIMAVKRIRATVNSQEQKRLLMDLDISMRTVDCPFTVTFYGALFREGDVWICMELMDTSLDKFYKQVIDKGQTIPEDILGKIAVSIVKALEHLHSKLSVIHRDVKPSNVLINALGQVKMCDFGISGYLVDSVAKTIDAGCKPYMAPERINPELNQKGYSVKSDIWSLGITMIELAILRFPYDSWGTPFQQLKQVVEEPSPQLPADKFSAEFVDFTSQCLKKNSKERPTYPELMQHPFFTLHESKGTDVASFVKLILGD

[5] = target: Mitogen-activated protein kinase 8 (Homo sapiens, UniProt P45983)
[6] = target: T3, Serine/threonine-protein kinase Nek2 (Homo sapiens, UniProt P51955)
T3 sequence (P51955 whole entry): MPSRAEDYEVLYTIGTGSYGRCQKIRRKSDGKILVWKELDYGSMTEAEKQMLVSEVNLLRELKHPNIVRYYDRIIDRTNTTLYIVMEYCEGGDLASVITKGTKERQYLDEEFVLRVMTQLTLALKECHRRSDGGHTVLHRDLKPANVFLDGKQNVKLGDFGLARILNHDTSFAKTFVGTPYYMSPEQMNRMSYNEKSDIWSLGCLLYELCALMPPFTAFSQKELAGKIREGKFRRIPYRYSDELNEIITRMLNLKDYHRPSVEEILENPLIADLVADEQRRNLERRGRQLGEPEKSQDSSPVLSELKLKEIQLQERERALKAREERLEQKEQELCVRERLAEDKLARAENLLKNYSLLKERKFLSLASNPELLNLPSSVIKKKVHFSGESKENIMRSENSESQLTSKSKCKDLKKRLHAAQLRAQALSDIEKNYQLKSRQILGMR

[7] = target: Serine/threonine-protein kinase PAK 4 (Homo sapiens, UniProt O96013)
[8] = target: T4, Rab-like protein 3 (Homo sapiens, UniProt Q5HYI8)
T4 sequence (Q5HYI8 whole entry): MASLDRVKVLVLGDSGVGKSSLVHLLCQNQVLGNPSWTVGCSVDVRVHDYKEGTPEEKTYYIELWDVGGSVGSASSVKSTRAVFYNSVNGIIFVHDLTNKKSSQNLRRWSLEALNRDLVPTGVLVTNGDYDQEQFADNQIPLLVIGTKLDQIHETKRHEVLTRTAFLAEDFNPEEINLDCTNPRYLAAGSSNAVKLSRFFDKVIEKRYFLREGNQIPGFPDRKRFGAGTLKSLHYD

[9] = target: TRAF2 and NCK-interacting protein kinase (Homo sapiens, UniProt Q9UKE5)
[10] = target: Wee1-like protein kinase (Homo sapiens, UniProt P30291)
[11] = target: Tyrosine-protein kinase Yes (Homo sapiens, UniProt P07947)
[12] = target: U5 small nuclear ribonucleoprotein 200 kDa helicase (Homo sapiens, UniProt O75643)
Also: in the data inactive means no Kd found up to 30 µM.

Sequence of Tyrosine-protein kinase Yes (P07947 whole entry): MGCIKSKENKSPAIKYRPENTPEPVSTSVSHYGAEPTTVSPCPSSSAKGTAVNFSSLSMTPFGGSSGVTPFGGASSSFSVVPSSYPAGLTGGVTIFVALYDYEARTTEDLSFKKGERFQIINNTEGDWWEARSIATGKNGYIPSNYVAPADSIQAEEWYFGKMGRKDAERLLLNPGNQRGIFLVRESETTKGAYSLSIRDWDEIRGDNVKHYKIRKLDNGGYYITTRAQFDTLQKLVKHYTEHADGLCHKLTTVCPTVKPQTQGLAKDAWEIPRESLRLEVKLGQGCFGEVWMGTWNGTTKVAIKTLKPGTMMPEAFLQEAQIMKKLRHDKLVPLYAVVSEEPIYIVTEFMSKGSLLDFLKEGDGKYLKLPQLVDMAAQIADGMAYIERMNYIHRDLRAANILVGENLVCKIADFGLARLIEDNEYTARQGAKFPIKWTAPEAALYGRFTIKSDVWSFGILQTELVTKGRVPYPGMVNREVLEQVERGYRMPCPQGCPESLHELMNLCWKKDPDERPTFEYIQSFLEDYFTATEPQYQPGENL
Sequence of Tyrosine-protein kinase FRK (P42685 whole entry): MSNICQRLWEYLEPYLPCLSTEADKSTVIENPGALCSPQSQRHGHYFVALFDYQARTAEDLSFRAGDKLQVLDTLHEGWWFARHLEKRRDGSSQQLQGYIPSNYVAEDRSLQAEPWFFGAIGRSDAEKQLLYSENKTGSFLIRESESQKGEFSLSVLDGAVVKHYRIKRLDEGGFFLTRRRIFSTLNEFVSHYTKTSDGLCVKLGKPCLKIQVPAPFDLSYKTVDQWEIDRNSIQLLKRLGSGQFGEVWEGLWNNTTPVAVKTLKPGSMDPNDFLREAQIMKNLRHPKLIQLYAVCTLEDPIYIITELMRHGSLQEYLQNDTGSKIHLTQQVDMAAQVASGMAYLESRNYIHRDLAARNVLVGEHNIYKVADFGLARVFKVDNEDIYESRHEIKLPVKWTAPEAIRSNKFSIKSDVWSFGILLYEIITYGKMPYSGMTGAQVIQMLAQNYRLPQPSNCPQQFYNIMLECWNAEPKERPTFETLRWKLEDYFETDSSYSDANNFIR
Sequence of TRAF2 and NCK-interacting protein kinase (Q9UKE5 whole entry): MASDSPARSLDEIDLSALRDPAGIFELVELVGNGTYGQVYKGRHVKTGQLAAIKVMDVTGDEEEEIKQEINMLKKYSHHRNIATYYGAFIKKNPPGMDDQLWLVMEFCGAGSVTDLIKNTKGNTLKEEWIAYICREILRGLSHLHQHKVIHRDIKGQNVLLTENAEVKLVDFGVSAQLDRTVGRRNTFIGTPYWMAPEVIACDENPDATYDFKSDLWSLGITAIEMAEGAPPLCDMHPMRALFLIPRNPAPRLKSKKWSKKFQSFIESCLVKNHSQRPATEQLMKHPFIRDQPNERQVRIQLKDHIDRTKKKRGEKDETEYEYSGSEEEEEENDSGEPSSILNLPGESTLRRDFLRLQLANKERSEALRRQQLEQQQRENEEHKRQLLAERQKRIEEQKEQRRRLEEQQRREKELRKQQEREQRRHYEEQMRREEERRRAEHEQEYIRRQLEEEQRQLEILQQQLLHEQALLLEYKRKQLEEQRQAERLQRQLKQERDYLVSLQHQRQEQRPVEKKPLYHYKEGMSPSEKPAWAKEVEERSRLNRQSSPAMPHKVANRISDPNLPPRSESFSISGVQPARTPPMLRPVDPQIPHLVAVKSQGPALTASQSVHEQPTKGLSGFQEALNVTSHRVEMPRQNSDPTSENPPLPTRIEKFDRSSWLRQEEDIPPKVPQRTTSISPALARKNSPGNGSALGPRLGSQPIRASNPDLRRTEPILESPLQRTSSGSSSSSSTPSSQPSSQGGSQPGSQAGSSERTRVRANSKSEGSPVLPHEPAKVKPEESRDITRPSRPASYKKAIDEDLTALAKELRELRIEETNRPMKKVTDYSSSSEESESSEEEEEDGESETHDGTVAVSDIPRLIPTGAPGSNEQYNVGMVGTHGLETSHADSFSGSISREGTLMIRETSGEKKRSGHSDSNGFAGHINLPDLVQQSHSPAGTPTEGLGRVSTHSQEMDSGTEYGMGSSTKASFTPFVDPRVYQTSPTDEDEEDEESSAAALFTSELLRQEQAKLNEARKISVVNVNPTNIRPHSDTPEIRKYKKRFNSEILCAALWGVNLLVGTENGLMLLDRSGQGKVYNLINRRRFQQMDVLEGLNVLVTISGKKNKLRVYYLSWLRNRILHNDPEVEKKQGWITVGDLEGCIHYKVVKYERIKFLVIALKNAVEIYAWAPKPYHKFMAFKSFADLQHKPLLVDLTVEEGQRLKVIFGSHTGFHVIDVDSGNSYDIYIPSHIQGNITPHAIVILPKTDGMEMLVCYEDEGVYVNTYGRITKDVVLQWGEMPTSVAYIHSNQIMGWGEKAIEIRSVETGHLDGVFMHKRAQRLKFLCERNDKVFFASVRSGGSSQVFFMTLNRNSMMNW
Sequence of Wee1-like protein kinase (P30291 whole entry): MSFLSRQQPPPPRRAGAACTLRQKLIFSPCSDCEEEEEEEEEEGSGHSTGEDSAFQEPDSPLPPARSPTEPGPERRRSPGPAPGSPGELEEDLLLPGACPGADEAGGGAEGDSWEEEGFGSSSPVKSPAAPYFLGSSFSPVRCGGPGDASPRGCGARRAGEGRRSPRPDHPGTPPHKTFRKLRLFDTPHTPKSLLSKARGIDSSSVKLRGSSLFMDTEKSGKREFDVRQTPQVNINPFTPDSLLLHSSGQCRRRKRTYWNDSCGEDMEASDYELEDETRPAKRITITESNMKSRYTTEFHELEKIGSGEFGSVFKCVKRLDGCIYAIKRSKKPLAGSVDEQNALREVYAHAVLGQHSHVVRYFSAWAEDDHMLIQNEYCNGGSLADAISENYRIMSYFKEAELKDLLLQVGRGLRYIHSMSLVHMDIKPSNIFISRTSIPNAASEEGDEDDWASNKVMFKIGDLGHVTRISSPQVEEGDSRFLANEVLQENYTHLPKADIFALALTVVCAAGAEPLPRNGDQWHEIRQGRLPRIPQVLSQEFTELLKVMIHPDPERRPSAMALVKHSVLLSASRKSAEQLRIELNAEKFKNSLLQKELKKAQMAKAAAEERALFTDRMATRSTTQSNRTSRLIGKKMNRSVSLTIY
Sequence of Mitogen-activated protein kinase 8 (P45983 whole entry): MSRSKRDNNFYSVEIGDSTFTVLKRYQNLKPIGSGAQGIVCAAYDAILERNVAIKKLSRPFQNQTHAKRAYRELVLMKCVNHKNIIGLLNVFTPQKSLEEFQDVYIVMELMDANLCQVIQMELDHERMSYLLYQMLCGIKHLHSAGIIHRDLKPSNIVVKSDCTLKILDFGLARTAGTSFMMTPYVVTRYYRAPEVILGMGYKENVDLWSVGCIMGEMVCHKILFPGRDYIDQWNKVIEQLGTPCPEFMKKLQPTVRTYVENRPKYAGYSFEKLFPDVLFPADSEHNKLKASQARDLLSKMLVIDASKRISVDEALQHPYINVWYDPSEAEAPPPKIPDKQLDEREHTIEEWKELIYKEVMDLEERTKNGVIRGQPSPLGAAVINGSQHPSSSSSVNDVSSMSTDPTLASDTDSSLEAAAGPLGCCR
Sequence of Serine/threonine-protein kinase PAK 4 (O96013 whole entry): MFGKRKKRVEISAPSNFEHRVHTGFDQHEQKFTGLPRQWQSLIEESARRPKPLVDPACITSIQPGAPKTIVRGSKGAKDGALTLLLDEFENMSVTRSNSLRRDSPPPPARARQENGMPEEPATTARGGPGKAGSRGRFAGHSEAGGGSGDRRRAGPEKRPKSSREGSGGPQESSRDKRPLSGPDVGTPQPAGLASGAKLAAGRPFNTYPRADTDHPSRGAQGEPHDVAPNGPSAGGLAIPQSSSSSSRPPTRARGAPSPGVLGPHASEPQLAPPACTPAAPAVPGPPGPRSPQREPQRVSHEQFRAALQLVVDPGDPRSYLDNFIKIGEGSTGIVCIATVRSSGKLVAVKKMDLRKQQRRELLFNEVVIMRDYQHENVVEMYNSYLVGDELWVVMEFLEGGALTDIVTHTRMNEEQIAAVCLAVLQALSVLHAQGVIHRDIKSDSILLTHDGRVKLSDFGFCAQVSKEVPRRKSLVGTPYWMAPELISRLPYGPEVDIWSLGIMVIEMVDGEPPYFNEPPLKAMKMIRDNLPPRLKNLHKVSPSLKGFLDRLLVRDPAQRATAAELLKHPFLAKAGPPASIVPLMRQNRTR
Sequence of Cyclin-dependent kinase 1 (P06493 whole entry): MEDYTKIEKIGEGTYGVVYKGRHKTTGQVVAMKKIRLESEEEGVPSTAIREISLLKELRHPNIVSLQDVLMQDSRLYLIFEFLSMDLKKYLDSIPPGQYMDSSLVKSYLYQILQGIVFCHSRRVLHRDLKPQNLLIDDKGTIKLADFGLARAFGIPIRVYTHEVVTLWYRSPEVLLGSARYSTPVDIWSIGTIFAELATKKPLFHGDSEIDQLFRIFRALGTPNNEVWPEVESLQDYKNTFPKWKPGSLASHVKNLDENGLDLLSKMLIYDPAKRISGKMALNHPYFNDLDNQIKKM

Kd [1] | Kd [2] | Kd [3] | Kd [4] | Kd [5] | Kd [6] | Kd [7] | Kd [8] | Kd [9] | Kd [10] | Kd [11] | Kd [12] | SMILES
> 30 µM (inactive) | > 30 µM (inactive) | > 30 µM (inactive) | > 30 µM (inactive) | > 30 µM (inactive) | > 30 µM (inactive) | > 30 µM (inactive) | > 30 µM (inactive) | > 30 µM (inactive) | > 30 µM (inactive) | > 30 µM (inactive) |  | Cn1ncc(Cl)c1-c1cc(C(=O)N[C@H](CN)Cc2cccc(F)c2)sc1Cl [AFURESERTIB]
> 30 µM (inactive) | > 30 µM (inactive) | > 30 µM (inactive) | > 30 µM (inactive) | 1.87 µM (active) | > 30 µM (inactive) | > 30 µM (inactive) | > 30 µM (inactive) | > 30 µM (inactive) | > 30 µM (inactive) | > 30 µM (inactive) | > 30 µM (inactive) | COC(=O)N[C@@H](C)CNc1nccc(-c2cn(C(C)C)nc2-c2cc(Cl)cc(NS(C)(=O)=O)c2F)n1 [ENCORAFENIB]
> 30 µM (inactive) | > 30 µM (inactive) | > 30 µM (inactive) | > 30 µM (inactive) | > 30 µM (inactive) | > 30 µM (inactive) | > 30 µM (inactive) | > 30 µM (inactive) | > 30 µM (inactive) | > 30 µM (inactive) | > 30 µM (inactive) | > 30 µM (inactive) | CCCS(=O)(=O)Nc1ccc(F)c(C(=O)c2c[nH]c3ncc(-c4ccc(Cl)cc4)cc23)c1F [VEMURAFENIB]
> 30 µM (inactive) | > 30 µM (inactive) | > 30 µM (inactive) | > 30 µM (inactive) | > 30 µM (inactive) | > 30 µM (inactive) | > 30 µM (inactive) | > 30 µM (inactive) | > 30 µM (inactive) | > 30 µM (inactive) | > 30 µM (inactive) |  | CC[C@H](Nc1ncnc2[nH]cnc12)c1nc2cccc(F)c2c(=O)n1-c1ccccc1 [IDELALISIB]
> 30 µM (inactive) | > 30 µM (inactive) | > 30 µM (inactive) | > 30 µM (inactive) | > 30 µM (inactive) | > 30 µM (inactive) | > 30 µM (inactive) | > 30 µM (inactive) | > 30 µM (inactive) | > 30 µM (inactive) | > 30 µM (inactive) | > 30 µM (inactive) | CNS(=O)(=O)Nc1nccc(Cc2c(C)c3ccc(Oc4ncccn4)cc3oc2=O)c1F [AVUTOMETINIB]
> 30 µM (inactive) | > 30 µM (inactive) | 0.724 µM (active) | > 30 µM (inactive) | 1.15 µM (active) | > 30 µM (inactive) | > 30 µM (inactive) | > 30 µM (inactive) | > 30 µM (inactive) | > 30 µM (inactive) | > 30 µM (inactive) | > 30 µM (inactive) | O=C(O)[C@]1(Cc2cccc(Nc3nccs3)n2)CC[C@@H](Oc2cccc(Cl)c2F)CC1 [MK-5108]
> 30 µM (inactive) | > 30 µM (inactive) | > 30 µM (inactive) | > 30 µM (inactive) | > 30 µM (inactive) | > 30 µM (inactive) | > 30 µM (inactive) | > 30 µM (inactive) | > 30 µM (inactive) | > 30 µM (inactive) | > 30 µM (inactive) | > 30 µM (inactive) | CC(=O)Nc1cccc(-n2c(=O)n(C3CC3)c(=O)c3c(Nc4ccc(I)cc4F)n(C)c(=O)c(C)c32)c1 [TRAMETINIB]
> 30 µM (inactive) | > 30 µM (inactive) | > 30 µM (inactive) | > 30 µM (inactive) | > 30 µM (inactive) | > 30 µM (inactive) | > 30 µM (inactive) |  | > 30 µM (inactive) | > 30 µM (inactive) | > 30 µM (inactive) | > 30 µM (inactive) | CO[C@H]1C[C@@H]2CC[C@@H](C)[C@@](O)(O2)C(=O)C(=O)N2CCCC[C@H]2C(=O)O[C@H]([C@H](C)C[C@@H]2CC[C@@H](OCCO)[C@H](OC)C2)CC(=O)[C@H](C)/C=C(\C)[C@@H](O)[C@@H](OC)C(=O)[C@H](C)C[C@H](C)/C=C/C=C/C=C/1C [EVEROLIMUS]
> 30 µM (inactive) | > 30 µM (inactive) | > 30 µM (inactive) | > 30 µM (inactive) | > 30 µM (inactive) | > 30 µM (inactive) | > 30 µM (inactive) | > 30 µM (inactive) | > 30 µM (inactive) | > 30 µM (inactive) | > 30 µM (inactive) | > 30 µM (inactive) | C[C@@H](Nc1cc(F)cc(F)c1)c1cc(C(=O)N(C)C)cc2c(=O)cc(N3CCOCC3)oc12 [AZD-8186]
> 30 µM (inactive) | > 30 µM (inactive) | > 30 µM (inactive) | > 30 µM (inactive) | > 30 µM (inactive) | > 30 µM (inactive) | > 30 µM (inactive) | > 30 µM (inactive) | > 30 µM (inactive) | > 30 µM (inactive) | > 30 µM (inactive) | > 30 µM (inactive) | O=c1sn(-c2cccc3ccccc23)c(=O)n1Cc1ccccc1 [TIDEGLUSIB]
> 30 µM (inactive) | > 30 µM (inactive) | > 30 µM (inactive) | > 30 µM (inactive) | > 30 µM (inactive) | > 30 µM (inactive) | > 30 µM (inactive) |  | > 30 µM (inactive) | > 30 µM (inactive) | > 30 µM (inactive) | > 30 µM (inactive) | CCn1c(=O)c(-c2cc[nH]n2)cc2c(C)nc(N)nc21 [VOXTALISIB]

SMILES | Kd [1] | Kd [2] | Kd [3] | Kd [4] | Kd [5] | Kd [6] | Kd [7] | Kd [8] | Kd [9] | Kd [10] | Kd [11] | Kd [12]
Cc1cc(-c2cc(O)ccc2Cl)cc2nnc(Nc3ccc(OCCN4CCCC4)cc3)nc12 | > 30 µM (inactive) | 0.0006 µM (active) | 0.001 µM (active) | > 30 µM (inactive) | > 30 µM (inactive) | > 30 µM (inactive) | > 30 µM (inactive) | > 30 µM (inactive) | > 30 µM (inactive) | > 30 µM (inactive) | 0.001 µM (active) | > 30 µM (inactive)
C=CC(=O)N1CCC(Oc2cc3c(Nc4ccc(Cl)c(Cl)c4F)ncnc3cc2OC)CC1 [POZIOTINIB] | > 30 µM (inactive) | > 30 µM (inactive) | > 30 µM (inactive) | > 30 µM (inactive) | > 30 µM (inactive) | > 30 µM (inactive) | > 30 µM (inactive) | > 30 µM (inactive) | > 30 µM (inactive) | > 30 µM (inactive) | > 30 µM (inactive) | > 30 µM (inactive)
